A melting point compilation (Tetko et al.; mined from patent text by program, amines drawn as free bases though some values may be those of a salt)

melting point | Compound
93 to 95 °C | COc1ccccc1N1C=C(C(Cl)(Cl)Cl)CN(C(Cl)(Cl)Cl)N1
103 to 105 °C | COc1ccc(-c2nc3c(C(=O)NC4CC5CCCC(C4)N5C)cccc3o2)cc1 (centres undefined)
107 to 112 °C | COCC(C)Oc1cc(Oc2ccc(S(C)(=O)=O)cc2)cc2cc(C3=NCC(CC(N)=O)S3)[nH]c12 (centres undefined)
65 to 70 °C | O=C(O)CCCCCCNC(=O)C1Cc2ccccc2N1S(=O)(=O)c1ccc(-c2cccc(C(F)(F)F)c2)cc1 (centres undefined)
110 to 115 °C | O=C1C(=O)c2ccccc2C2=C1SCC1(CCN(C(=O)C=Cc3ccccc3Cl)CC1)O2
198 to 200 °C | CCOC(=O)c1cn(C)c2nc3cc(N4CCNC(c5ccco5)C4)c(F)cc3cc2c1=O (racemic)
109 to 112 °C | CCOc1ccc(C2=NN(C3CCN(C(=O)Nc4ccccc4)CC3)C(=O)[C@@H]3CC=CC[C@H]23)cc1OCC
114 to 116 °C | COc1ccc2c(c1)CCC1C2=CCC2(C)C(OC(C)=O)CCC12 (centres undefined)
227 to 229 °C | CC(C)C1Sc2ccccc2N(CC(N)=O)C(=O)C1N (centres undefined)
204 to 206 °C | COCOc1cc(F)ccc1-c1cc(-c2cccc(N)c2)c(C#N)c(NC(=O)c2ccco2)n1
135 to 137 °C | CC1(O)CC(=O)OC(CCc2ccc(O)cc2)C1 (centres undefined)
126 to 127 °C | Cc1nc(-c2cc(C(C)(C)C)c(O)c(C(C)(C)C)c2)no1
130 to 132 °C | CCOP(=O)(CCNCc1c(N)c(=O)c1=O)OCC
70 to 72 °C | CN1C(=O)C(c2ccc(OCCCCBr)cc2)Sc2cc(Cl)ccc21 (centres undefined)
165 to 167 °C | Nc1nc(N2CCOCC2)c2ncn(C3C=CC(CO)C3)c2n1 (centres undefined)
220 to 222 °C | Nc1nc(Cl)nc2c1ncn2[C@@H]1S[C@H](CO)[C@@H](O)[C@H]1O
102 °C | CCN(CC)C(=O)COc1nc(-c2ccccc2)cc2ccccc12
234 °C | O=C(CCCCl)Nc1ccc2c(c1)C(=O)c1cc(NC(=O)CCCCl)ccc1C2=O
74 to 76 °C | CCc1cccc2nc(N[C@@H](CC(C)C)C(=O)OC)oc(=O)c12
145 °C | COC(=O)c1nn(-c2ccc(Cl)cc2Cl)c(-c2ccc(Cl)cc2)c1CBr
184 to 189 °C | CC(C)(C)NC(=O)N1CCn2c(Br)c(-c3cccc(F)c3)c(C(N)=O)c2C1
90 to 91.5 °C | COc1ccc(/C=C(\C#N)c2cccc(Br)c2)cc1OC1CCCC1

melting point | Compound
133 to 134 °C | CCOc1nn(Cc2ccc(OCc3ccc4ccccc4n3)nc2)cc1CCC(=O)O
132 to 133 °C | CC1(C)CC(S(=O)(=O)Cc2c(C(F)(F)F)nn(-c3ccccc3)c2Cl)=NO1
152 °C | COc1ncc(C=O)cc1Cl
156 to 158 °C | CC(=O)N[C@H]1C(n2cc(Cl)cnc2=O)O[C@H](CO)[C@@H](O)[C@@H]1O (some centres undefined)
61.5 to 62.5 °C | COC(=O)C(OCc1ccc(-c2ccc(Cl)cc2)cc1)(C(F)(F)F)C(F)(F)F
211 to 213 °C | CC(C)OP(=O)(/C=C/CCn1cnc2c(N)nc(N)nc21)OC(C)C
146 to 148 °C | CC(=O)NC[C@H]1CN(c2ccc(C3CCNCC3)cc2)C(=O)O1
124 to 126 °C | CCCc1nc(C(=O)OC)c(C(=O)OC)n1Cc1ccc(-c2ccccc2-c2nnnn2C(c2ccccc2)(c2ccccc2)c2ccccc2)cc1
169 °C | O=c1ncc(Br)cn1COCc1ccccc1
114 to 116 °C | CCOC(=O)C1=Cc2cc(Cl)cc(-c3ccc(Cl)cc3)c2OC1C(F)(F)F (centres undefined)
76 to 77 °C | COC(=O)c1ccc(-c2ccc(C(OC)OC)cc2)cc1
163 to 165 °C | COC1(c2cccc(S(=O)(=O)c3ccc4c(c3)oc(=O)n4C)c2)CCOCC1
143 to 144 °C | CS(=O)(=O)n1cc(C2CCN(S(=O)(=O)N3CCCC[C@@H]3C(=O)NO)CC2)c2cc(C#N)ccc21
135 °C | Cc1csc(C)c1S(N)(=O)=O
65 to 68 °C | CN(CCCNC(=NCCCOc1cccc(CN2CCCCC2)c1)NC#N)CCN(Cc1ccc(F)cc1)c1ccccn1
194 to 196 °C | CN1OCC(=Cc2cc(C(C)(C)C)c(O)c(C(C)(C)C)c2)C1=O
140 to 145 °C | CCCS(=O)(=O)Oc1c(C(=O)c2ccc3c(c2C)C(SCC)CCS3(=O)=O)cnn1CC (centres undefined)
227 to 229 °C | O=P1(c2ccccc2)c2ccccc2CN1c1ccccc1 (centres undefined)
116 to 117 °C | OCCc1coc2c(O)cccc12
164 to 165 °C | Cc1c(C(=O)Nc2ccc(N3CCN(CCO)CC3)c(C#N)c2)cnn1-c1ccc(F)c(F)c1
228 to 230 °C | Clc1cccnc1-c1ccc2[nH]nc(Nc3cnccn3)c2c1
93 to 95 °C | CCc1c(-c2ccc(O)cc2)c2cc(COCCN(CC)CC)c3cccc1n32

melting point | Compound
69 °C | CC(=O)NCC(=O)c1ccccc1
46 to 48 °C | COC(=O)CCc1cc(Cl)ccc1C(=O)CCCNC(C)=O
184 to 186 °C | Cc1ccc2c(c1)N=C(N1CCN(C)CC1)c1c(sc3ccccc13)N2
142 °C | CC(C)(C)c1cc(C=O)ccc1O
155 to 156 °C | COc1cc(C=CC(=O)c2ccc(N(C)C)cc2)cc(OC)c1
66 to 68 °C | Cc1cc(Br)c(Cl)c(Cl)c1N
159 to 160 °C | Nc1cnc(-c2cc(Cl)ccc2Cl)c(N)n1
125 to 128 °C | CN1CCC(=C2c3ccccc3Sc3ccc(S(=O)(=O)C(F)(F)F)cc32)CC1
228 to 230 °C | COc1cc(CNC(=O)c2nc3cnn(CCOc4ccc(C(=O)O)cc4)c3c(=O)[nH]2)ccc1F
40 °C | CCCCCC[C@H](C)Oc1ccc(-c2ccc(O)c([N+](=O)[O-])c2)cc1
159 °C | COc1ccccc1NC(=O)[C@@H]1Cc2[nH]cnc2CN1C(C)=O
222 to 224 °C | COc1ccc(CCC2SC(=O)NC2=O)c2ccc(=O)n(C)c12 (centres undefined)
178 to 180 °C | C=CCOC(=O)C(Cc1ccc2ccc3cccc4ccc1c2c34)(Cc1ccc2ccc3cccc4ccc1c2c34)C(=O)OCC=C
78.1 to 80 °C | CCN(CC)c1ccc(/C=C/c2cc(/C=C/c3ccc4cc[nH]c4c3)[nH]n2)c(OCc2ccccc2)c1
191 to 195 °C | CC1(C)CC(NC(=O)C(=O)NNC(=O)COc2ccc(C(=O)c3ccccc3)c(O)c2)CC(C)(C)N1
> 220 °C | N#CC(C(=O)c1ccc(-c2nnn[nH]2)cc1)=C1CCCCN1
155 °C | CCCCCOc1ccc(C(=O)Nc2ccc3cc(CN4CCCC4)cnc3c2C)cc1
130 to 138 °C | Cc1noc(NS(=O)(=O)c2ccccc2-c2ccc(-c3ncco3)cc2CN(C)C(=O)C(C)(C)c2ccccc2)c1C
102 to 105 °C | COc1cc(C)c(C(O)c2c(Cl)cncc2C(F)(F)F)c(OC)c1OC (centres undefined)
144 to 146 °C | CC1(C)OCC(C(O)CNC(=O)CS(=O)(=O)Nc2ccc(F)c(C(F)(F)F)c2)O1 (centres undefined)
137 to 139 °C | O=C(N[C@H]1CCc2ccc(O)cc2C1)[C@H](O)c1ccc(OCc2ccccc2)cc1

Compound | melting point
CN(C)C=C1N=C(c2ccccc2Cl)c2cc(Cl)ccc2N(C)C1=O | 199 to 200 °C
CCOc1ccc(-c2ccc(C3(O)CN4CCC3CC4)cc2)cc1 (centres undefined) | 199 to 200 °C
NC(=O)CNC(=O)CN1CC(O)CC1=O (centres undefined) | 158 to 160 °C
CC(=O)NC(=O)N1CC1C#N (centres undefined) | 139 to 142 °C
